US11013696B2, “Lipids and lipid compositions for the delivery of active agents” (Novartis AG, priority 2013, dated 2021)

Legend:
[1] = test system: human leptin; assay: Human leptin in mouse plasma (ELISA) after IV tail vein injection of encapsulated leptin mRNA; assay type: in vivo; conditions: hLeptin
Method: Human leptin in mouse plasma was measured by ELISA. Antibodies purchased from the R&D Systems duoset (Cat #DY398E, part #840279 for capture antibody and part #840280 for detection antibody) were reconstituted using PBS and titered, again using PBS. The capture antibody was coated at 4 ug/ml in 30 ul/well on a white Nunc® Maxisorp 384 well plate (Cat #460372). After an overnight incubation at room temperature the capture antibody was aspirated and the plate blocked for 2 hours at room temperature with 90 ul/well of KPL milk blocker (Cat #50-82-00). Once the incubation was completed the plate was aspirated and recombinant standards and samples were added to the plate at 30 ul/well for 2 hours at 37° C. while shaking at 600 rpm. Sample/standard dilutions were made using casein sample diluent. Washing/aspiration 3 times with 100 ul/well followed, using Teknova plate wash solution (Cat #P1192). Next, detection antibody was diluted using casein detection antibody diluent to 12.5 ng/ml and added at 30 ul/well for 2 hours room temperature. After this incubation, the plate was washed again and a solution of poly-streptavidin-HRP (Cat #21140) at a 1:1250 dilution in HRP dilution buffer was added to each well (30 ul/well) and incubated for 30 minutes room temperature. A final wash/aspiration removed the HRP solution and a chemiluminescent substrate was added at 30 ul/well (Cat #1859678 & 1859679). The plate was quickly read using a SpectramaxM5 plate reader with a 50 ms integration time. The dynamic range of the ELISA is from 100-2,000 […] (6.25-125 pM) of human leptin. The assay is applicable to plasma from mice, rats and cynomolgus monkeys.
Before the tail vein injection, mouse body weights were recorded and diet weighted, with mice grouped according to their body weights. Mice were prepared by warming them under a heating lamp for ˜2 minutes, with the mice about 12 inches from heat lamp. […]
On day 0, animals were weighed and sorted according to average body weight. Mice were dosed, and food intake (FI) was recorded, on each of days 1-7 and days 9, 11, and 16.

[2] = test system: mouse Erythropoietin; assay: Mouse EPO ELISA after IV injection of encapsulated mEPO mRNA; assay type: in vivo; conditions: 0.2 mpk, ob/ob
Method: A rat anti-mouse Erythropoietin antibody is coated on 384-well white microtiter plates overnight, then blocked for assay. Then, plasma samples are diluted in a casein-based sample diluent and incubated on the plate with buffer controls and mouse EPO standards. The plate is then washed to remove unbound material. A biotinylated rat anti-mouse Erythropoietin antibody is then added to the plate to detect mouse EPO bound by the capture antibody. The plate is washed again and a streptavidin-conjugated horseradish peroxidase reagent is incubated on the plate. A third wash step is performed and a chemiluminescent reagent is added to the plate and immediately read by a capable plate reader using all wavelengths and a 50 millisecond integration time. Unknown samples are interpolated off the mouse EPO standard curve.

[3] = Particle size and polydispersity by DLS of RSV-F replicon LNPs; assay type: physicochemical
Method: A self-replicating replicon encoding RSV F protein was administered to BALB/c mice, 8 animals per group, by bilateral intramuscular vaccinations (50 μL per leg) on days 0 and 21 with the replicon (0.1 and 1 ng) formulated as liposomes with the lipids described below. All liposomes tested were composed of 40% cationic lipid, 10% DSPC, 48% cholesterol and 2% PEG-DMG with similar amounts of RNA. The liposomes were all prepared using the same technique as described above.
% entrapment (% E), Concentration of RNA (Conc), particle size measured by DLS, and polydispersity reported by DLS of LNPs prepared with different cationic lipids

[4] = test system: human leptin; assay: Human leptin in mouse plasma (ELISA) after subcutaneous injection of encapsulated leptin mRNA; assay type: in vivo; conditions: hLeptin, 0.2 mpk
[5] = Particle size and PDI of lipid nanoparticles by dynamic light scattering (Malvern Zetasizer); assay type: physicochemical
Description: The lipid nanoparticles have a size of about 1 to about 2,500 nm, about 10 to about 1,500 nm, about 20 to about 1,000 nm, in a sub-embodiment about 50 to about 600 nm, in a sub-embodiment about 50 to about 400 nm, in a sub-embodiment about 50 to about 250 nm, and in a sub-embodiment about 50 to about 150 nm. Unless indicated otherwise, all sizes referred to herein are the average sizes (diameters) of the fully formed nanoparticle, as measured by dynamic light scattering on a Malvern Zetasizer. The nanoparticle sample is diluted in phosphate buffered saline (PBS) so that the count rate is approximately 200-400 kcts. The data is presented as a weighted average of the intensity measure.
Unless indicated otherwise, all PDIs referred to herein are the PDI of the fully formed nanoparticle, as measured by dynamic light scattering on a Malvern Zetasizer. The nanoparticle sample was diluted in phosphate buffered saline (PBS) so that the count rate was approximately 200-400 kcts. The data is presented in Table 3 as a weighted average of the intensity measure.
Unless indicated otherwise, all particle size measurements referred to in Table 3 are the Z-average particle size of the fully formed nanoparticle, as measured by dynamic light scattering on a Malvern Zetasizer. The nanoparticle sample was diluted in phosphate buffered saline (PBS) so that the count rate is approximately 200-400 kcts.

[6] = RSV-F replicon LNP prepared for 1st IM
[7] = RSV-F replicon LNP prepared for 2nd IM

| PDI ([5]; Gluc mRNA LNP) | Size ([5]; Gluc mRNA LNP) [nm] | PDI ([5]; hFIX mRNA LNP) | Size ([5]; hFIX mRNA LNP) [nm] | PDI ([5]; hLep plasmid LNP) | Size ([5]; hLep plasmid LNP) [nm] | PDI ([5]; hLeptin mRNA LNP) | Size ([5]; hLeptin mRNA LNP) [nm] | PDI ([5]; pDNA LNP) | Size ([5]; pDNA LNP) [nm] | PDI ([5]; FVII siRNA LNP) | Size ([5]; FVII siRNA LNP) [nm] | SMILES | PDI [3, 6] | Size [3, 6] [nm] | PDI [3, 7] | Size [3, 7] [nm] | PDI ([5]; FLuc mRNA LNP) | Size ([5]; FLuc mRNA LNP) [nm] | PDI ([5]; mEPO mRNA LNP) | Size ([5]; mEPO mRNA LNP) [nm] | other results |
| --- | --- | --- | --- | --- | --- | --- | --- | --- | --- | --- | --- | --- | --- | --- | --- | --- | --- | --- | --- | --- | --- |
| 0.145 | 106.7 | 0.141 | 102.6 | 0.155 | 102.6 | 0.103 | 122.6 | 0.128 | 101.6 | 0.075 | 95.7 | CCCCCCCCCCCCC(CCOC(=O)CCCCC(OCCCCCCCC)OCCCCCCCC)OC(=O)OCCCN(CC)CC (stereo not shown) [Example 16, 3-(((3-(diethylamino)propoxy)carbonyl)oxy)pentadecyl 6,6-bis(octyloxy)hexanoate] |  |  |  |  | 0.145 | 106.7 | 0.112 | 83.2 | Expression of protein following IV injection of encapsulated mRNA ([1]; 0.2 mpk, ob/ob): 21.4 ng/mL; Expression of protein following SC injection of encapsulated mRNA ([4]; ob/ob): 8.4 ng/mL |
|  |  |  |  |  |  |  |  |  |  |  |  | CCCCCCCCCCCCC(CCOC(=O)CCCCC(OCC(CC)CCCC)OCC(CC)CCCC)OC(=O)OCCCN(CC)CC (stereo not shown) [Example 18, 3-(((3-(diethylamino)propoxy)carbonyl)oxy)pentadecyl 6,6-bis((2-ethylhexyl)oxy)hexanoate] | 0.13 | 132.2 | 0.065 | 139.8 |  |  |  |  |  |
|  |  |  |  |  |  |  |  |  |  |  |  | CCCCCCCCCC(=O)OCCC(CC(CCCCCCCC)CCCCCCCC)OC(=O)OCCCN(C)C (stereo not shown) [Example 70, 3-(((3-(dimethylamino)propoxy)carbonyl)oxy)-5-octyltridecyl decanoate] | 0.121 | 133.7 | 0.118 | 141.7 |  |  |  |  |  |
| 0.113 | 76.9 | 0.079 | 148.3 | 0.153 | 109.8 | 0.101 | 119.1 | 0.152 | 123.5 | 0.073 | 122.6 | CCCCC/C=C\C/C=C\CCCCCCCCC(CCC(=O)OC(COC(=O)CCCCCCC)COC(=O)CCCCCCC)OC(=O)OCCCN(C)C (stereo not shown) [Example 94, 2-(((13Z,16Z)-4-(((3-(dimethylamino)propoxy)carbonyl)oxy)docosa-13,16-dienoyl)oxy)propane-1,3-diyl dioctanoate] |  |  |  |  | 0.093 | 129.2 | 0.099 | 108.5 |  |

| SMILES | PDI ([5]; Gluc mRNA LNP) | Size ([5]; Gluc mRNA LNP) [nm] | PDI ([5]; hFIX mRNA LNP) | Size ([5]; hFIX mRNA LNP) [nm] | PDI ([5]; hLep plasmid LNP) | Size ([5]; hLep plasmid LNP) [nm] | PDI ([5]; hLeptin mRNA LNP) | Size ([5]; hLeptin mRNA LNP) [nm] | PDI ([5]; pDNA LNP) | Size ([5]; pDNA LNP) [nm] | PDI ([5]; FVII siRNA LNP) | Size ([5]; FVII siRNA LNP) [nm] | PDI [3, 6] | Size [3, 6] [nm] | PDI [3, 7] | Size [3, 7] [nm] | PDI ([5]; FLuc mRNA LNP) | Size ([5]; FLuc mRNA LNP) [nm] | PDI ([5]; mEPO mRNA LNP) | Size ([5]; mEPO mRNA LNP) [nm] | other results |
| --- | --- | --- | --- | --- | --- | --- | --- | --- | --- | --- | --- | --- | --- | --- | --- | --- | --- | --- | --- | --- | --- |
| CCCCCCCCCCCCC(CCOC(=O)CCCCC(COC(=O)CCCCCCC)COC(=O)CCCCCCC)OC(=O)OCCCN(CC)CC (stereo not shown) [Example 1, 2-(10-dodecyl-3-ethyl-8,14-dioxo-7,9,13-trioxa-3-azaoctadecan-18-yl)propane-1,3-diyl dioctanoate] | 0.093 | 84.7 | 0.082 | 95.5 | 0.138 | 109.8 | 0.071 | 128.1 | 0.135 | 110 |  |  | 0.105 | 139.1 | 0.045 | 131.3 | 0.100 | 108.8 | 0.073 | 104.1 | Expression of protein following IV injection of encapsulated mRNA ([1]; 0.4mpk, C57): 66.3 ng/mL; Expression of protein following IV injection of encapsulated mRNA [2]: 247.6 ng/mL; Expression of protein following SC injection of encapsulated mRNA ([4]; C57): 1.2 ng/mL; Expression of protein following SC injection of encapsulated mRNA ([4]; ob/ob): 16.2 ng/mL |
| CCCCC/C=C\C/C=C\CCCCCCCC(=O)OCC(COC(=O)CCCCCCC/C=C\C/C=C\CCCCC)OC(=O)CCC(CCCCCCCCCCCC)OC(=O)OCCCN(C)C (stereo not shown) [Example 80, (9Z,9′Z,12Z,12′Z)-2-((4-(((3-(dimethylamino)propoxy)carbonyl)oxy)hexadecanoyl)oxy)propane-1,3-diyl bis(octadeca-9,12-dienoate)] |  |  |  |  |  |  |  |  |  |  | 0.051 | 97.3 |  |  |  |  | 0.085 | 193.5 | 0.083 | 166.0 |  |
